In the assay the test system is 138582-337-R-J1-PDC complex spheroid viability. Put plainly: Anticancer human tumor 138582-337-R-J1-PDC patient-derived Merkel cell tumor cell line growth inhibition. To be noted: for viability, T/C: stronger effect = lower value. The essentials:
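Multicellular complex spheroids of tumor cells with human endothelial cells (HUVEC) and mesenchymal stem cells; the LSD1 inhibitor iadademstat was combined with standard-of-care or investigational agents. Top concentration at or near clinical Cmax, half-log dilutions; final DMSO ≤0.25%.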

The text below walks through data of PubChem BioAssay AID1918931 (Molecular Pharmacology Branch, DTP, NCI, 2023).

Each structure is given as a SMILES string. Where “and” joins values, the source holds several entries; their conditions need not be identical. Equal entries are not always repeated.
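Note: spheroids exposed to agents for 7 days.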
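Throughout, for viability, T/C: 100% = DMSO vehicle control viability.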

In general, viability, T/C refers to the ratio of treated to control. Broadly, the IC50 is the concentration that gives 50% inhibition. In the case of `Nc1ccn(C2OC(CO)C(O)C2(F)F)c(=O)n1` (stereo not drawn), the viability, T/C (compound 0.000949 µM) was 80.2% and 102%; the viability, T/C (compound 0.003 µM) was 94.3% and 100%; the viability, T/C (compound 0.00949 µM) is 86.5% and 77.4%; the viability, T/C (compound 0.03 µM) is 82.4% and 55.1%; the viability, T/C (compound 0.0949 µM) was 80% and 59.3%; the viability, T/C (compound 0.3 µM) is 112% and 53.6%. Also, the concentration for half-maximal inhibition (IC50) (curve of compound) was more than 300 nM.

In the case of `CC(C)CC(NC(=O)C(Cc1ccccc1)NC(=O)c1cnccn1)B(O)O` (stereo not drawn), the viability, T/C is 116% and 74.5% (compound 0.000316 µM); 0.75% and 0.32% (compound 0.00316 µM); 0.21% and 0.23% (compound 0.01 µM); 0.25% and 0.21% (compound 0.0316 µM); 0.37% and 0.28% (compound 0.1 µM). Also, the IC50 (curve of compound) was 0.922 nM and 0.463 nM.

Regarding `CCc1c2c(nc3ccc(O)cc13)-c1cc3c(c(=O)n1C2)COC(=O)[C@]3(O)CC` + NC1CC1c1ccc(-c2cccc(O)c2)cc1, the IC50 runs as follows: (curve of first compound, second compound 0.1 µM) 4.56 nM; (curve of first compound, second compound 0.316 µM) 2.69 nM; (curve of first compound, second compound 1 µM) 3.28 nM; (curve of first compound, second compound 3.16 µM) 4.01 nM; (curve of first compound, second compound 10 µM) 5.59 nM. Further, the viability, T/C is 64.6% (second compound 0.1 µM, first compound 0.000949 µM); 65.2% (second compound 0.1 µM, first compound 0.003 µM); 23.9% (second compound 0.1 µM, first compound 0.00949 µM); 0.24% (second compound 0.1 µM, first compound 0.03 µM); 0.19% (second compound 0.1 µM, first compound 0.0949 µM); 0.2% (second compound 0.1 µM, first compound 0.3 µM). Further, the viability, T/C by setting is: (second compound 0.316 µM, first compound 0.000949 µM) 73.8%; (second compound 0.316 µM, first compound 0.003 µM) 45.9%; (second compound 0.316 µM, first compound 0.00949 µM) 23.5%; (second compound 0.316 µM, first compound 0.03 µM) 0.59%; (second compound 0.316 µM, first compound 0.0949 µM) 0.13%; (second compound 0.316 µM, first compound 0.3 µM) 0.24%. Also, the viability, T/C (second compound 1 µM, first compound 0.000949 µM) is 57.1%; the viability, T/C (second compound 1 µM, first compound 0.003 µM) is 51.3%; the viability, T/C (second compound 1 µM, first compound 0.00949 µM) was 23.9%; the viability, T/C (second compound 1 µM, first compound 0.03 µM) was 0.3%; the viability, T/C (second compound 1 µM, first compound 0.0949 µM) was 0.16%; the viability, T/C (second compound 1 µM, first compound 0.3 µM) is 0.21%. For the same molecule, the viability, T/C reads like this: (second compound 3.16 µM, first compound 0.000949 µM) 78%; (second compound 3.16 µM, first compound 0.003 µM) 57.7%; (second compound 3.16 µM, first compound 0.00949 µM) 25.3%; (second compound 3.16 µM, first compound 0.03 µM) 0.56%; (second compound 3.16 µM, first compound 0.0949 µM) 0.14%; (second compound 3.16 µM, first compound 0.3 µM) 0.23%. The viability, T/C is, setting by setting: (second compound 10 µM, first compound 0.000949 µM) 82.4%; (second compound 10 µM, first compound 0.003 µM) 68%; (second compound 10 µM, first compound 0.00949 µM) 34.7%; (second compound 10 µM, first compound 0.03 µM) 0.44%; (second compound 10 µM, first compound 0.0949 µM) 0.21%; (second compound 10 µM, first compound 0.3 µM) 0.33%.
